target: human APJ receptor (Homo sapiens (Human), UniProt P35414); experiment: Intracellular cAMP accumulation assay (APJ hcAMP, HTRF); type: cell-based; conditions: HEK293 cells stably expressing human APJ receptor; inhibition of forskolin-mediated cAMP production; read-out: Human APJ cAMP EC50 Potency range
In short: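 cAMP inhibition was quantified by HTRF against a cAMP standard curve, with EC50 fitted to a variable-slope sigmoidal curve. Compounds acted on 5,000 APJ-stable HEK293 cells for 30 minutes at room temperature alongside 2 μM forskolin and […] IBMX. Detection reagents were incubated 60 min.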

human APJ receptor, sequence (P35414 whole entry): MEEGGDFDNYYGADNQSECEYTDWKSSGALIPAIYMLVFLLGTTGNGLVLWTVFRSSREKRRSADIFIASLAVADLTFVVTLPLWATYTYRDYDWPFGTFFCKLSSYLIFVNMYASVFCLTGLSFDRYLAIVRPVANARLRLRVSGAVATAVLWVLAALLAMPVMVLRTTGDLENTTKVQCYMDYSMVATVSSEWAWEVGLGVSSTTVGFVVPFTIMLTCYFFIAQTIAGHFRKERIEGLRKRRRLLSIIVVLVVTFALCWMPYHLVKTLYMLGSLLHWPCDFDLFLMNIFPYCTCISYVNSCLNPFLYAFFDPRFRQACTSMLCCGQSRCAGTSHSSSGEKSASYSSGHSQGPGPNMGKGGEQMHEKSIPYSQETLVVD

EC50 [nM]	SMILES
10 to 100	CCCCc1nc(O)c(-c2nnc(CNC)o2)c(O)c1-c1c(OC)cccc1OC [Example 154, 6-butyl-5-(2,6-dimethoxyphenyl)-3-{5-[(methylamino)methyl]-1,3,4-oxadiazol-2-yl}pyridine-2,4-diol]
0.01 to 10	CCCCc1nc(O)c(-c2nnc(CN(C)C(=O)Cc3ccccc3)o2)c(O)c1-c1c(OC)cccc1OC [Example 155, N-({5-[6-butyl-5-(2,6-dimethoxyphenyl)-2,4-dihydroxypyridin-3-yl]-1,3,4-oxadiazol-2-yl}methyl)-N-methyl-2-phenylacetamide]

same assay, conditions: HEK293 cells stably expressing human APJ receptor; inhibition of forskolin-mediated cAMP production; read-out: hAPJ cAMP EC50 Potency range

SMILES	EC50 [nM]
CCCCc1[nH]c(=O)c(-c2nnc(Cc3csc(C)n3)o2)c(O)c1-c1cccc(N2CCCC2)c1 [Example 153, 6-butyl-4-hydroxy-3-{5-[(2-methyl-1,3-thiazol-4-yl)methyl]-1,3,4-oxadiazol-2-yl}-5-[3-(pyrrolidin-1-yl)phenyl]-1,2-dihydropyridin-2-one]	10 to 100
CCCCc1nc(O)c(-c2nnc(CN(C)C(=O)C(C)(C)C)o2)c(O)c1-c1c(OC)cccc1OC [Example 169, N-({5-[6-butyl-5-(2,6-dimethoxyphenyl)-2,4-dihydroxypyridin-3-yl]-1,3,4-oxadiazol-2-yl}methyl)-N,2,2-trimethyl-propanamide]	0.01 to 10
CCCCc1nc(O)c(-c2nnc(CN)o2)c(O)c1-c1c(OC)cccc1OC [Example 170, 3-[5-(aminomethyl)-1,3,4-oxadiazol-2-yl]-6-butyl-5-(2,6-dimethoxyphenyl) pyridine-2,4-diol]	10 to 100
CCCCc1nc(O)c(-c2nnc(CNC(=O)c3ccccc3)o2)c(O)c1-c1c(OC)cccc1OC [Example 171, N-({5-[6-butyl-5-(2,6-dimethoxyphenyl)-2,4-dihydroxypyridin-3-yl]-1,3,4-oxadiazol-2-yl}methyl) benzamide]	0.01 to 10
CCCCc1nc(O)c(-c2nnc(CN(C)C(=O)c3ccccc3)o2)c(O)c1-c1c(OC)cccc1OC [Example 172, N-({5-[6-butyl-5-(2,6-dimethoxyphenyl)-2,4-dihydroxypyridin-3-yl]-1,3,4-oxadiazol-2-yl}methyl)-N-methylbenzamide]	0.01 to 10
CCOCc1nc(O)c(-c2nnc(CNC(=O)c3ccccc3)o2)c(O)c1-c1c(OC)cccc1OC [Example 173, N-({5-[5-(2,6-dimethoxyphenyl)-6-(ethoxymethyl)-2,4-dihydroxypyridin-3-yl]-1,3,4-oxadiazol-2-yl}methyl) benzamide]	0.01 to 10
CCCCc1nc(O)c(-c2nnc(CNC(=O)CC(C)C)o2)c(O)c1-c1c(OC)cccc1OC [Example 174, N-({5-[6-butyl-5-(2,6-dimethoxyphenyl)-2,4-dihydroxypyridin-3-yl]-1,3,4-oxadiazol-2-yl}methyl)-3-methylbutanamide]	0.01 to 10
CCCCc1nc(O)c(-c2nnc(CNC(C)=O)o2)c(O)c1-c1c(OC)cccc1OC [Example 175, N-({5-[6-butyl-5-(2,6-dimethoxyphenyl)-2,4-dihydroxypyridin-3-yl]-1,3,4-oxadiazol-2-yl}methyl) acetamide]	0.01 to 10

More lines, now with the values ahead:

EC50 [nM]	SMILES
0.01 to 10	CCCCc1nc(O)c(-c2nnc(CN(C)C(=O)c3cccc(Cl)c3)o2)c(O)c1-c1c(OC)cccc1OC [Example 156, N-({5-[6-butyl-5-(2,6-dimethoxyphenyl)-2,4-dihydroxypyridin-3-yl]-1,3,4-oxadiazol-2-yl}methyl)-3-chloro-N-methylbenzamide]
0.01 to 10	CCCCc1nc(O)c(-c2nnc(CN(C)C(=O)c3ccccn3)o2)c(O)c1-c1c(OC)cccc1OC [Example 157, N-({5-[6-butyl-5-(2,6-dimethoxyphenyl)-2,4-dihydroxypyridin-3-yl]-1,3,4-oxadiazol-2-yl}methyl)-N-methylpyridine-2-carboxamide]
0.01 to 10	CCCCc1nc(O)c(-c2nnc(CNC(=O)COC)o2)c(O)c1-c1c(OC)cccc1OC [Example 158, N-({5-[6-butyl-5-(2,6-dimethoxyphenyl)-2,4-dihydroxypyridin-3-yl]-1,3,4-oxadiazol-2-yl}methyl)-2-methoxyacetamide]
0.01 to 10	CCCCc1nc(O)c(-c2nnc(CN(C)C(=O)c3ccncc3)o2)c(O)c1-c1c(OC)cccc1OC [Example 159, N-({5-[6-butyl-5-(2,6-dimethoxyphenyl)-2,4-dihydroxypyridin-3-yl]-1,3,4-oxadiazol-2-yl}methyl)-N-methylpyridine-4-carboxamide]
0.01 to 10	CCCCc1nc(O)c(-c2nnc(CNC(=O)c3cccnc3)o2)c(O)c1-c1c(OC)cccc1OC [Example 160, N-({5-[6-butyl-5-(2,6-dimethoxyphenyl)-2,4-dihydroxypyridin-3-yl]-1,3,4-oxadiazol-2-yl}methyl)pyridine-3-carboxamide]
0.01 to 10	CCCCc1nc(O)c(-c2nnc(CN(C)C(=O)c3ccccc3Cl)o2)c(O)c1-c1c(OC)cccc1OC [Example 161, N-({5-[6-butyl-5-(2,6-dimethoxyphenyl)-2,4-dihydroxypyridin-3-yl]-1,3,4-oxadiazol-2-yl}methyl)-2-chloro-N-methylbenzamide]
0.01 to 10	CCCCc1nc(O)c(-c2nnc(CNC(=O)c3cccc(Cl)c3)o2)c(O)c1-c1c(OC)cccc1OC [Example 162, N-({5-[6-butyl-5-(2,6-dimethoxyphenyl)-2,4-dihydroxypyridin-3-yl]-1,3,4-oxadiazol-2-yl}methyl)-3-chlorobenzamide]
0.01 to 10	CCCCc1nc(O)c(-c2nnc(CNC(=O)c3ccc(Cl)cc3)o2)c(O)c1-c1c(OC)cccc1OC [Example 163, N-({5-[6-butyl-5-(2,6-dimethoxyphenyl)-2,4-dihydroxypyridin-3-yl]-1,3,4-oxadiazol-2-yl}methyl)-4-chlorobenzamide]
0.01 to 10	CCCCc1nc(O)c(-c2nnc(CNC(=O)c3ccncc3)o2)c(O)c1-c1c(OC)cccc1OC [Example 164, N-({5-[6-butyl-5-(2,6-dimethoxyphenyl)-2,4-dihydroxypyridin-3-yl]-1,3,4-oxadiazol-2-yl}methyl)pyridine-4-carboxamide]
0.01 to 10	CCCCc1nc(O)c(-c2nnc(CN(C)C(=O)c3cccnc3)o2)c(O)c1-c1c(OC)cccc1OC [Example 165, N-({5-[6-butyl-5-(2,6-dimethoxyphenyl)-2,4-dihydroxypyridin-3-yl]-1,3,4-oxadiazol-2-yl}methyl)-N-methylpyridine-3-carboxamide]
0.01 to 10	CCCCc1nc(O)c(-c2nnc(CNC(=O)Cc3ccccc3)o2)c(O)c1-c1c(OC)cccc1OC [Example 166, N-({5-[6-butyl-5-(2,6-dimethoxyphenyl)-2,4-dihydroxypyridin-3-yl]-1,3,4-oxadiazol-2-yl}methyl)-2-phenylacetamide]
0.01 to 10	CCCCc1nc(O)c(-c2nnc(CNC(=O)C(C)(C)C)o2)c(O)c1-c1c(OC)cccc1OC [Example 167, N-({5-[6-butyl-5-(2,6-dimethoxyphenyl)-2,4-dihydroxypyridin-3-yl]-1,3,4-oxadiazol-2-yl}methyl)-2,2-dimethyl-propanamide]
0.01 to 10	CCCCc1nc(O)c(-c2nnc(CNC(=O)c3ccccn3)o2)c(O)c1-c1c(OC)cccc1OC [Example 168, N-({5-[6-butyl-5-(2,6-dimethoxyphenyl)-2,4-dihydroxypyridin-3-yl]-1,3,4-oxadiazol-2-yl}methyl)pyridine-2-carboxamide]

Source: patent US10336739B2, “4-hydroxy-3-(heteroaryl)pyridine-2-one APJ agonists” (BRISTOL-MYERS SQUIBB COMPANY, priority 2015, dated 2019)
